The values below come from ChEMBL document CHEMBL5512664, “Emerging and Re-emerging Warheads for Targeted Covalent Inhibitors: An Update” (J Med Chem, 2024).

pEC50, pIC50, pKi: −log10 of the molar value.

For series [1], the target named is Induced myeloid leukemia cell differentiation protein Mcl-1 (Homo sapiens, UniProt Q07820). The experiment in a line: Irreversible inhibition of MCL-1 (unknown origin) measured after 8 hrs.
Series [2] has as its target Eukaryotic translation initiation factor 4E (Homo sapiens) (UniProt P06730). The series can be described thus: Inhibition of eIF4E (unknown origin) assessed as reaction rate Kinact/Ki ratio.
Series [3] can be described thus: Stability of the compound in pH 7.5 PBS assessed as hydrolysis by measuring half life at 500 uM by LC-MS analysis. The class given is physicochemical. As to conditions: PBS pH 7.5, pH 7.5.
Series [4] in a line: GSH reactivity in PBS buffer at pH 7.5 assessed as half life at 500 uM by LC-MS analysis. The class given is ADME.
Series [5] concerns the target Eukaryotic translation initiation factor 4E (Homo sapiens) (UniProt P06730). The series can be described thus: Inhibition of eIF4E (unknown origin) assessed as inactivation rate constant (Kinact).
The nature of series [6]: Stability of the compound in human plasma assessed as half life. The format is ADME, cell-free.
For series [7], the target named is T1, Replicase polyprotein 1ab (Severe acute respiratory syndrome coronavirus 2, UniProt P0DTD1). The series can be described thus: Inhibition of SARS-CoV-2 Main protease (Mpro) by FRET assay.
Series [8] has as its target Signal peptidase I (Escherichia coli K-12) (UniProt P00803). The series can be described thus: Irreversible inhibition of Escherichia coli type I signal peptidase LepB assessed as inactivation rate constant (Kinact).
Another series has as its target Signal peptidase I (Escherichia coli K-12, UniProt P00803). The series can be described thus: Binding affinity to Escherichia coli type I signal peptidase LepB assessed as inhibition constant.
Series [9] has as its target Signal peptidase I (Escherichia coli K-12) (UniProt P00803). The series can be described thus: Inhibition of Escherichia coli type I signal peptidase LepB assessed as reaction rate Kinact/Ki ratio.
The target in another series is Pyruvate kinase PKLR (Homo sapiens, UniProt P30613). The series can be described thus: Allosteric activation at human liver pyruvate kinase.
Chain of Pyruvate kinase PKLR (P30613 whole entry): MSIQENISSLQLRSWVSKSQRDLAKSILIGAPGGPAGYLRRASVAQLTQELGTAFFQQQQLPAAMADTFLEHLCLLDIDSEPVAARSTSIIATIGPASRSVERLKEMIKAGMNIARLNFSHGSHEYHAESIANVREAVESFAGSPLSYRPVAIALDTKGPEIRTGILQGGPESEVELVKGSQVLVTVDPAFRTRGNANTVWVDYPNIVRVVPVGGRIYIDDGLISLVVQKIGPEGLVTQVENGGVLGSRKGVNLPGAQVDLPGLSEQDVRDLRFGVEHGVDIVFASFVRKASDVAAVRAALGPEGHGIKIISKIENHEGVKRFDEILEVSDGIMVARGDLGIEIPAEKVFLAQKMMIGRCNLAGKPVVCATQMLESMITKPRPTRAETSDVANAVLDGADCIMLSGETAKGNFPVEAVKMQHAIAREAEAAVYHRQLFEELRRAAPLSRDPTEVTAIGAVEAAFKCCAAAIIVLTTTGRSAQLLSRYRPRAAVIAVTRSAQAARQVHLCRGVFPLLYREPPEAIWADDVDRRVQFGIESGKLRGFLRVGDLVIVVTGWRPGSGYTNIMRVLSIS
Series [10] addresses Bromodomain-containing protein 4 (Homo sapiens) (UniProt O60885). The experiment in a line: Binding affinity to his-tagged recombinant BRD4 BD1 (unknown origin) assessed as increase in thermal stability by measuring change in melting temperature after 4 hrs by cellular thermal shift assay.
A short description of series [11]: Toxicity in ip dosed mature male rabbit assessed as death. The class given is organism-based, Oryctolagus cuniculus. Particulars: in vivo.
Series [12] in a line: Inhibition of staphylococcus aureus Sortase A assessed as fluorescence polarization using reporter peptide W7-F incubated for 30 mins by competition assay.
Series [13] in a line: Cytotoxicity against African green monkey Vero E6 cells. The format is toxicity, cell-based, Vero C1008. As to conditions: chlorocebus sabaeus.
For series [14], the target named is T1, Replicase polyprotein 1ab. The experiment in a line: Inhibition of SARS-CoV-2 cysteine protease main protease.
The nature of series [15]: Metabolic stability in human hepatocytes assessed as half life. The class given is ADME, cell-based, Hepatocyte.
Series [16] is described as follows: Metabolic stability in human liver microsomes assessed as half life. The class given is ADME, Microsome.
Series [17] concerns the target T2, Chromobox protein homolog 8 (Homo sapiens) (UniProt Q9HC52).
T2 sequence (whole entry): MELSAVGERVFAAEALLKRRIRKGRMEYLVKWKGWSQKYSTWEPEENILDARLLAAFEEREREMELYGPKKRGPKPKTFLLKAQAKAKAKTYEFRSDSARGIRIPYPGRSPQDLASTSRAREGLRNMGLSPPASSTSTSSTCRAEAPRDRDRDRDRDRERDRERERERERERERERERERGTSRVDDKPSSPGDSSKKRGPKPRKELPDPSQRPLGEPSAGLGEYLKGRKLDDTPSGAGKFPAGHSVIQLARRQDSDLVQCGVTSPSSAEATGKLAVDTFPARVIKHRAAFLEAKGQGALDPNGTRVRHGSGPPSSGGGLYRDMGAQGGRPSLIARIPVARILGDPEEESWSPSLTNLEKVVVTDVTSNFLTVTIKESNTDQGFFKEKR
The experiment in a line: Binding affinity to CBX8 (unknown origin) assessed as rate constant of covalent modification (Kinact).

A short description of series [18]: Reactivity of SuTEx assessed as aryl-LG modifications by measuring half life by HLPC analysis. The class given is physicochemical.
Series [19] addresses T3, Tyrosine-protein kinase BTK (Homo sapiens, UniProt Q06187).
Description: Binding affinity to BTK (unknown origin) assessed as inactivation rate constant (Kinact)
Series [20] can be described thus: Thiol reactivity of compound assessed as (Kinact/Ki) rate constant ratio. The format is ADME.
In series [21] the target is T3, Tyrosine-protein kinase BTK. The experiment in a line: Binding affinity to BTK (unknown origin) assessed as inhibition constant.
Series [22] addresses T4, Peptidyl-prolyl cis-trans isomerase E (Homo sapiens, UniProt Q9UNP9). The series can be described thus: Inhibition of CypE (unknown origin) expressed in Escherichia coli BL21(DE3) by FLIPR based Chymotrypsin coupled prolyl-isomerase assay.
The target of series [23] is T4, Peptidyl-prolyl cis-trans isomerase E. The experiment in a line: Inhibition of CypE (unknown origin) assessed as apparent inhibition constant incubated for 24 hrs by Competition anisotropy binding assay. Particulars: read-out: Ki(app).

Chain of Signal peptidase I (Escherichia coli K-12) (P00803 whole entry): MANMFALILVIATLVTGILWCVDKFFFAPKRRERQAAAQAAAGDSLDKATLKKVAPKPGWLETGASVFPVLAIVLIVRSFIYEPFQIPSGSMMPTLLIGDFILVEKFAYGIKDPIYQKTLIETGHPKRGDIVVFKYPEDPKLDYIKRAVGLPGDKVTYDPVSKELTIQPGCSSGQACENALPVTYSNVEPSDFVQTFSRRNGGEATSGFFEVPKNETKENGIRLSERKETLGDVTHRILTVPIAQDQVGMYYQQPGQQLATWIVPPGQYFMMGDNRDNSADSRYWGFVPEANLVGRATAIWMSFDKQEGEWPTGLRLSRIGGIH
T4 sequence (Q9UNP9 whole entry): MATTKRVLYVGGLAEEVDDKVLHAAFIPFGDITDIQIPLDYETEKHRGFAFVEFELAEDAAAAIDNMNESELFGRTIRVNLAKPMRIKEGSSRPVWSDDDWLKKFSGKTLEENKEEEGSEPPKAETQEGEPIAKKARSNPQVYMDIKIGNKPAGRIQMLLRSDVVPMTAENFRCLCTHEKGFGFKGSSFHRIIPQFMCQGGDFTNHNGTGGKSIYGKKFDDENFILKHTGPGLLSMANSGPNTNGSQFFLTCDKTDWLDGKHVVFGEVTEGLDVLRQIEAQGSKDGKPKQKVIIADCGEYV
Chain of Eukaryotic translation initiation factor 4E (Homo sapiens) (P06730 whole entry): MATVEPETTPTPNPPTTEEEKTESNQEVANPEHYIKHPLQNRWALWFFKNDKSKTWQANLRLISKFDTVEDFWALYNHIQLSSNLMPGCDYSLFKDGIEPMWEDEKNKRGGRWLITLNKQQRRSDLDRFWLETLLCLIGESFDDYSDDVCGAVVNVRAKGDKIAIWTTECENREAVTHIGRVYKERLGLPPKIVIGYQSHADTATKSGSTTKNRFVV
T3 sequence (Q06187 whole entry): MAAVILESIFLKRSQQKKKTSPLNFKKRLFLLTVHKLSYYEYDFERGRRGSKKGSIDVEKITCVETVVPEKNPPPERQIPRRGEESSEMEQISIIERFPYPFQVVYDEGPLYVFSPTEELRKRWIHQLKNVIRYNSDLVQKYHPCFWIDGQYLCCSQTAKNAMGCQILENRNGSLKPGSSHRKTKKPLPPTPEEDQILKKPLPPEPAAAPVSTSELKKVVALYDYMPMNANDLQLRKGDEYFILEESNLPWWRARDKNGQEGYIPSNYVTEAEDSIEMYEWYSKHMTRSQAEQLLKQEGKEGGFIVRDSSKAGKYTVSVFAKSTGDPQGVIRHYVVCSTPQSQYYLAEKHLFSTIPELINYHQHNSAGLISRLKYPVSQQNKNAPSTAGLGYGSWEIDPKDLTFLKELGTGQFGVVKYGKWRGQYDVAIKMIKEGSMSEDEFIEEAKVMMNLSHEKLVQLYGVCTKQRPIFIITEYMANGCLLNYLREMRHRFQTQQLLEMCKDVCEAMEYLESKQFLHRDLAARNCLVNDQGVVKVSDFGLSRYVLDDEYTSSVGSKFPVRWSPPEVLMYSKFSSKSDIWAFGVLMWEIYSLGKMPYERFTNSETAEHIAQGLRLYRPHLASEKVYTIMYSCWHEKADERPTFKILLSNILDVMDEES
Chain of Induced myeloid leukemia cell differentiation protein Mcl-1 (Q07820 whole entry): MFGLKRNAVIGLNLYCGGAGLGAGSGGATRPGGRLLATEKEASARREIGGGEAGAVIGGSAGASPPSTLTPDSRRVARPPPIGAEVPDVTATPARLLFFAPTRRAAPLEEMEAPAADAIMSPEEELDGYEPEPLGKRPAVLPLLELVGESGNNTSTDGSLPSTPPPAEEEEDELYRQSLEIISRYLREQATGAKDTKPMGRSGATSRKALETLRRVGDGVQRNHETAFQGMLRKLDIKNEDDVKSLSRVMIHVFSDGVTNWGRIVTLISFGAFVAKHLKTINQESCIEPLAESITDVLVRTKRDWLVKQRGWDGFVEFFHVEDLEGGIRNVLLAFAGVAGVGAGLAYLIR
Chain of Signal peptidase I (P00803 whole entry): as the sequence (P00803 whole entry) above

As for `C#Cc1ccc(OCc2nn(C)c(C)c2-c2cccc3c(CCCOc4cccc5ccccc45)c(C(=O)O)[nH]c23)cc1C=O`, the pIC50 in series [1] was 7.57. Turning to `CNc1nc2ccc(N(Cc3ccnc(Cl)c3)S(=O)(=O)c3cccc(S(=O)(=O)F)c3)cc2c(=O)[nH]1`, in series [2], the Ratio was 5.5 10^3/M/s. The half-life at 500 µM in series [3] was determined as 30 min; in series [4], 2.7 min. The Kinact in series [5] is 2 10^-2/s. Regarding `O=C1CCC(N2Cc3ccc(S(=O)(=O)n4cncn4)cc3C2=O)C(=O)N1` (stereo not given), the half-life in series [6] was less than 1 min. In turn, `O=C[C@H](CC1CCNC1=O)NC(=O)[C@H](Cc1cccc(F)c1)NC(=O)c1cc2ccccc2[nH]1` (stereo not given in full) gave a pIC50 in series [7] of 7.40. Take `Cc1nc(-c2ccc(C(C)(C)C)cc2)ncc1C(=O)N[C@@H](CCN)C(=O)N(C)[C@@H]1C(=O)N[C@@H](C)C(=O)N[C@H](C(=O)NCC#N)Cc2ccc(OCCN)c(c2)-c2cc1ccc2OCCN`: the Kinact in [8] was 7 10^-4/s. In addition, on Signal peptidase I, the pKi was 9.36. In addition, the Ratio in series [9] is 1.6 10^6/M/s. With `COC(=O)c1ccccc1SC1=NS(=O)(=O)c2ccccc21`, the negative logarithm of the EC50 (pEC50) on Pyruvate kinase PKLR was 6.54. For the compound `Cc1noc(C)c1-c1ccc(=O)n(Cc2ccc(C3CO3)cc2)c1` (stereo not given), the ΔTm in series [10] is 22 °C. Turning to `O=C(NCCCCCCCCNC(=O)C(Cl)Cl)C(Cl)Cl`, in series [11], the median lethal dose (LD50) turned out to be 10000 mg/kg. In the case of `O=Cc1ccccc1NCc1ccccc1B(O)O`, the negative logarithm of the IC50 (pIC50) in series [12] was 5.89. On to `C[C@@H](NC(=O)[C@H](c1cccnc1)N(C(=O)C(Br)(Br)Br)c1ccc(-c2ccccc2)cc1)c1ccccc1`, for which, in series [13], it took 5.48 µM to reach half-maximal cytotoxicity (CC50). This compound also had a pIC50 in series [14] of 7.10. On to `O=C1CCC(N2Cc3ccc(OS(=O)(=O)F)cc3C2=O)C(=O)N1` (stereo not given), for which the half-life in series [15] was greater than 217 min; in series [16], greater than 145 min. For `O=S(=O)(c1ccc(F)cc1)n1cnc(-c2ccc(C(F)(F)F)cc2)n1`, in series [17], the K was 2.9 10^-3/M/s. Also, the half-life in series [18] came to 3.2 min. Turning to `CC(C)(C)OC(=O)/C=C/C(=O)N1CCC[C@@H](n2nc(-c3ccc(Oc4ccccc4)cc3)c3c(N)ncnc32)C1`, the Kinact in series [19] was 7.62 10^-3/s. Also, the kinact/KI in series [20] stood at 35000 M⁻¹ s⁻¹. For the same compound, the pKi in series [21] is 6.66. `NCCOCCNC(=O)[C@@H]1CCNC(=O)/C=C/C(=O)N2CCC[C@](Cc3ccccc3)(C2)C(=O)N[C@@H](Cc2ccc(-c3ccccc3)cc2)C(=O)NCc2ccccc2CC(=O)N1` gave a pIC50 in series [22] of 7.89. Also, the pKi in series [23] was 7.14.
